Experimental data published in patent US11434242B2, “Dopamine-b-hydroxylase inhibitors” (BIAL-PORTELA & Cª, S.A., priority 2017, dated 2022).

Target: T1, Dopamine beta hydroxylase (Homo sapiens, UniProt P09172)
T1 construct: 125 μl of plasma; tissue Instituto Português do Sangue Transplantação; host or cells: human plasma from healthy donors
T1 sequence (P09172 40-617 limits assumed): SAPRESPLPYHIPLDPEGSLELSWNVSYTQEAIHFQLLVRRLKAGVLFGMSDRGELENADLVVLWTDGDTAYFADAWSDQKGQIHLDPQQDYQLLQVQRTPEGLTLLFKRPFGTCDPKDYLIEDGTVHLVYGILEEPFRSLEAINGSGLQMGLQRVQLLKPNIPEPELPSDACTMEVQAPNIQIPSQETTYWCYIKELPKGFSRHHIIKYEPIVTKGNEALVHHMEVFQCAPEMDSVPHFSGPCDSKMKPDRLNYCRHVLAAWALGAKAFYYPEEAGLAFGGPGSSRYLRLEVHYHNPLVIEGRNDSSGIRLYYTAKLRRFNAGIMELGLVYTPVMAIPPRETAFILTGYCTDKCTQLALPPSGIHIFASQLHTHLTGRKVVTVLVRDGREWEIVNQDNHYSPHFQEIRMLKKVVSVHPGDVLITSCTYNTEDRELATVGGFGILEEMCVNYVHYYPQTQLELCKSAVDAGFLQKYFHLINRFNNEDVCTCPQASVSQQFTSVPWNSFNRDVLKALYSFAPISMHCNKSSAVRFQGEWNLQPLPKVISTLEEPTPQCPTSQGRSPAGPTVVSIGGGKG
Experiment: Dopamine beta hydroxylase activity in human plasma
Format: biochemical
Details: for Plasma (0.01 μM), activity in % of control: inhibitor 0.01 μM; for Plasma (0.1 μM), activity in % of control: inhibitor 0.1 μM; for Plasma (1 μM), activity in % of control: inhibitor 1 μM
Procedure, shortened: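 Healthy-donor human plasma pre-incubated 10 min at 37° C with compound at final 10, 100 or 1000 nM in pH 5.0 acetate buffer with ascorbate, fumarate, pargyline, N-ethylmaleimide, catalase and copper sulfate. Tyramine substrate then added for 45 min; octopamine formed was isolated by SCX cartridge, periodate-converted and read at 330 nm; activity given as % control.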

SMILES | Plasma (0.01 μM), activity in % of control | Plasma (0.1 μM), activity in % of control | Plasma (1 μM), activity in % of control
CN(C(=O)Cc1[nH]c(=S)n2c1C[C@H](c1c(F)ccc(Br)c1F)C2)C1CCCCC1 [Example 132, (R)-2-(6-(3-bromo-2,6-difluorophenyl)-3-thioxo-2,5,6,7-tetrahydro-3H-pyrrolo[1,2-c]imidazol-1-yl)-N-cyclohexyl-N-methylacetamide] | 91.9 % of control | 62.3 % of control | 
CC(C)NC(=O)Cc1[nH]c(=S)n2c1C[C@H](c1c(F)ccc(Br)c1F)C2 [Example 133, (R)-2-(6-(3-bromo-2,6-difluorophenyl)-3-thioxo-2,5,6,7-tetrahydro-3H-pyrrolo[1,2-c]imidazol-1-yl)-N-isopropylacetamide] | 95.9 % of control | 82.4 % of control | 
CN(Cc1cccnc1)C(=O)Cc1[nH]c(=S)n2c1C[C@@H](c1c(F)ccc(Cl)c1F)C2 [Example 134, (S)-2-(6-(3-chloro-2,6-difluorophenyl)-3-thioxo-2,5,6,7-tetrahydro-3H-pyrrolo[1,2-c]imidazol-1-yl)-N-methyl-N-(pyridin-3-ylmethyl)acetamide] | 24.9 % of control | 3.2 % of control | 
CS(=O)(=O)C1CCN(C(=O)Cc2[nH]c(=S)n3c2C[C@H](c2c(F)ccc(Br)c2F)C3)C1 (stereo partly drawn) [Example 135, 2-((R)-6-(3-bromo-2,6-difluorophenyl)-3-thioxo-2,5,6,7-tetrahydro-3H-pyrrolo[1,2-c]imidazol-1-yl)-1-(3-(methylsulfonyl)pyrrolidin-1-yl)ethan-1-one] | 88.3 % of control | 58.1 % of control | 
O=C(Cc1[nH]c(=S)n2c1C[C@@H](c1c(F)ccc(Br)c1F)C2)N1CCS(=O)(=O)CC1 [Example 136, (S)-2-(6-(3-bromo-2,6-difluorophenyl)-3-thioxo-2,5,6,7-tetrahydro-3H-pyrrolo[1,2-c]imidazol-1-yl)-1-(1,1-dioxidothiomorpholino)ethan-1-one] | 44.3 % of control | 6.8 % of control | 
O=C(Cc1[nH]c(=S)n2c1C[C@@H](c1c(F)ccc(Br)c1F)C2)N1CCSCC1 [Example 137, (S)-2-(6-(3-bromo-2,6-difluorophenyl)-3-thioxo-2,5,6,7-tetrahydro-3H-pyrrolo[1,2-c]imidazol-1-yl)-1-thiomorpholinoethan-1-one] | 72.9 % of control | 21.5 % of control | 
O=C(Cc1[nH]c(=S)n2c1C[C@@H](c1c(F)ccc(Br)c1F)C2)N1CCC2(CCOC2)C1 (stereo partly drawn) [Example 138, 2-((S)-6-(3-bromo-2,6-difluorophenyl)-3-thioxo-2,5,6,7-tetrahydro-3H-pyrrolo[1,2-c]imidazol-1-yl)-1-(2-oxa-7-azaspiro[4.4]nonan-7-yl)ethan-1-one] | 46.6 % of control | 5.0 % of control | 
O=C(Cc1[nH]c(=S)n2c1C[C@H](c1c(F)ccc(Br)c1F)C2)NCc1ccccn1 [Example 139, (R)-2-(6-(3-bromo-2,6-difluorophenyl)-3-thioxo-2,5,6,7-tetrahydro-3H-pyrrolo[1,2-c]imidazol-1-yl)-N-(pyridin-2-ylmethyl)acetamide] | 77.8 % of control | 20.8 % of control | 
O=C(Cc1[nH]c(=S)n2c1C[C@@H](c1c(F)ccc(Br)c1F)C2)N1CCOCC1 [Example 140, (S)-2-(6-(3-bromo-2,6-difluorophenyl)-3-thioxo-2,5,6,7-tetrahydro-3H-pyrrolo[1,2-c]imidazol-1-yl)-1-morpholinoethan-1-one] | 73.1 % of control | 26.8 % of control | 
O=C(Cc1[nH]c(=S)n2c1C[C@H](c1c(F)ccc(Br)c1F)C2)N1CCOCC1 [Example 141, (R)-2-(6-(3-bromo-2,6-difluorophenyl)-3-thioxo-2,5,6,7-tetrahydro-3H-pyrrolo[1,2-c]imidazol-1-yl)-1-morpholinoethan-1-one] | 93.2 % of control | 76.1 % of control | 
O=C(Cc1[nH]c(=S)n2c1[C@@H]1C[C@]1(c1c(F)ccc(Cl)c1F)C2)NCCn1cccn1 [Example 142, N-(2-(1H-pyrazol-1-yl)ethyl)-2-((5aS,6aR)-5a-(3-chloro-2,6-difluorophenyl)-3-thioxo-2,3,5,5a,6,6a-hexahydrocyclopropa[3,4]pyrrolo[1,2-c]imidazol-1-yl)acetamide] | 60.0 % of control | 16.2 % of control | 
O=C(Cc1[nH]c(=S)n2c1[C@@H]1C[C@]1(c1cc(Br)ccc1F)C2)NCC1CC1 [Example 143, 2-((5aS,6aR)-5a-(5-bromo-2-fluorophenyl)-3-thioxo-2,3,5,5a,6,6a-hexahydrocyclopropa[3,4]pyrrolo[1,2-c]imidazol-1-yl)-N-(cyclopropylmethyl)acetamide] |  | 20.1 % of control | 0.2 % of control
N#CCNC(=O)Cc1[nH]c(=S)n2c1[C@@H]1C[C@]1(c1cc(Br)ccc1F)C2 [Example 144, 2-((5aS,6aR)-5a-(5-bromo-2-fluorophenyl)-3-thioxo-2,3,5,5a,6,6a-hexahydrocyclopropa[3,4]pyrrolo[1,2-c]imidazol-1-yl)-N-(cyanomethyl)acetamide] |  | 14.7 % of control | 0.1 % of control
O=C(Cc1[nH]c(=S)n2c1[C@@H]1C[C@]1(c1cc(Br)ccc1F)C2)NCCc1ccccn1 [Example 145, 2-((5aS,6aR)-5a-(5-bromo-2-fluorophenyl)-3-thioxo-2,3,5,5a,6,6a-hexahydrocyclopropa[3,4]pyrrolo[1,2-c]imidazol-1-yl)-N-(2-(pyridin-2-yl)ethyl)acetamide] |  | 18.2 % of control | 2.0 % of control
CN(C)CCCNC(=O)Cc1[nH]c(=S)n2c1[C@@H]1C[C@]1(c1cc(Br)ccc1F)C2.Cl [Example 146, 2-((5aS,6aR)-5a-(5-bromo-2-fluorophenyl)-3-thioxo-2,3,5,5a,6,6a-hexahydrocyclopropa[3,4]pyrrolo[1,2-c]imidazol-1-yl)-N-(3-(dimethylamino)propyl)acetamide hydrochloride] |  | 13.8 % of control | 0.9 % of control
O=C(Cc1[nH]c(=S)n2c1[C@@H]1C[C@]1(c1cc(Br)ccc1F)C2)N1CCN(c2ccccn2)CC1 [Example 147, 2-((5aS,6aR)-5a-(5-bromo-2-fluorophenyl)-3-thioxo-2,3,5,5a,6,6a-hexahydrocyclopropa[3,4]pyrrolo[1,2-c]imidazol-1-yl)-1-(4-(pyridin-2-yl)piperazin-1-yl)ethan-1-one] |  | 29.0 % of control | 2.4 % of control
O=C(Cc1[nH]c(=S)n2c1[C@@H]1C[C@]1(c1cc(Br)ccc1F)C2)NC1CCOC1 (stereo partly drawn) [Example 148, 2-((5aS,6aR)-5a-(5-bromo-2-fluorophenyl)-3-thioxo-2,3,5,5a,6,6a-hexahydrocyclopropa[3,4]pyrrolo[1,2-c]imidazol-1-yl)-N-(tetrahydrofuran-3-yl)acetamide] |  | 17.1 % of control | 0.9 % of control
O=C(Cc1[nH]c(=S)n2c1[C@@H]1C[C@]1(c1c(F)ccc(Cl)c1F)C2)N1CCC(F)(F)CC1 [Example 149, 2-((5aS,6aR)-5a-(3-chloro-2,6-difluorophenyl)-3-thioxo-2,3,5,5a,6,6a-hexahydrocyclopropa[3,4]pyrrolo[1,2-c]imidazol-1-yl)-1-(4,4-difluoropiperidin-1-yl)ethan-1-one] | 52.5 % of control | 3.0 % of control | 
O=C(Cc1[nH]c(=S)n2c1[C@@H]1C[C@]1(c1c(F)ccc(Cl)c1F)C2)NCC(F)(F)F [Example 150, 2-((5aS,6aR)-5a-(3-chloro-2,6-difluorophenyl)-3-thioxo-2,3,5,5a,6,6a-hexahydrocyclopropa[3,4]pyrrolo[1,2-c]imidazol-1-yl)-N-(2,2,2-trifluoroethyl)acetamide] | 64.8 % of control | 17.1 % of control | 
